Measurements from US7202239B2, “Cyclohexylphenyl carboxamides tocolytic oxytocin receptor antagonists” (Wyeth, priority 2001, dated 2007).

## O=C(c1ccc(C2CCCCC2)cc1)N1Cc2cccn2Cc2ccccc21 [Example 4, 10-(4-Cyclohexyl-benzoyl)-10,11-dihydro-5H-pyrrolo[2,1-c][1,4]benzodiazepine]
  melting point: 127 to 129 °C
